Usually IC50 stands for the point on the concentration scale where inhibition reaches its midpoint. Usually Ki stands for the dissociation constant of the complex between target and ligand, obtained from inhibition or displacement.

Each structure is given as a SMILES string.

The nature of test [1]: DRUGMATRIX: Atrial Natriuretic Factor (ANF) radioligand binding (ligand: [125I] ANF (rat)). Type of test: cell membranes, Cavia porcellus, Dunkin-Hartley, Adrenal gland, Membrane. The following applies: Not Active = under 50% inhibition at 10 µM.
Test [2] is described as follows: DRUGMATRIX: beta-Lactamase enzyme inhibition (substrate: Nitrocefin). Details: species or system Bacillus cereus. The following applies: Not Active = under 50% inhibition at 10 µM.
The nature of test [3]: DRUGMATRIX: Calcium Channel Type L, Benzothiazepine radioligand binding (ligand: [3H] Diltiazem). The test is classed as cell membranes, Rattus norvegicus, Wistar, Brain, Membrane. The following applies: Not Active = under 50% inhibition at 10 µM.
Test [4] has as its target T1, Thromboxane-A synthase (Homo sapiens, UniProt P24557).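 Note: enzyme inhibition assay with PGH2 supplied as substrate; in other assays of this panel Not Active means under 50% inhibition at 10 µM.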
T1 sequence (P24557 whole entry): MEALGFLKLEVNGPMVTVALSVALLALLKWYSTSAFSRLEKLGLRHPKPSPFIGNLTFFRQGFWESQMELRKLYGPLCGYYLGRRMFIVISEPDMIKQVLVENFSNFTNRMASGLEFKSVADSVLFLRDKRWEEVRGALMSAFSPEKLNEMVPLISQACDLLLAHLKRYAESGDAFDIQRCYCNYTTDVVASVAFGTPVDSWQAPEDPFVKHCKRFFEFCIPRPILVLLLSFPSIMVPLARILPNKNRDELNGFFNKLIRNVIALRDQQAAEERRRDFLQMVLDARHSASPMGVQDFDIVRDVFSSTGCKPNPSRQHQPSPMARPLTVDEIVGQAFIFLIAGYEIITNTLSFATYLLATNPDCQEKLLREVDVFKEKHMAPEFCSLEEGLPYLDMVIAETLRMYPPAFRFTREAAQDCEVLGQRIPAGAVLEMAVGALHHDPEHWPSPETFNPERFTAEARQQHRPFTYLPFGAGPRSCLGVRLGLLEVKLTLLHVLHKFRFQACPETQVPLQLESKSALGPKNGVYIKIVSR
The test can be described thus: biochemical. Type of test: tissue-based, Platelet. The following applies: platelet.

Test [5] has as its target C-C chemokine receptor type 2 (Homo sapiens, UniProt P41597). The test is classed as cell membranes, CHO-K1, Membrane. The following applies: cho-k1. Note: in other assays of this panel Not Active means under 50% inhibition at 10 µM.
The nature of test [6]: DRUGMATRIX: GABAA, Flunitrazepam, Central radioligand binding (ligand: [3H] Flunitrazepam). Type of test: cell membranes, Rattus norvegicus, Wistar, Brain, Membrane. The following applies: Not Active = under 50% inhibition at 10 µM.
The nature of test [7]: DRUGMATRIX: Glutamate, Kainate radioligand binding (ligand: [3H] Kainic acid). The following applies: Not Active = under 50% inhibition at 10 µM. Type of test: cell membranes, Rattus norvegicus, Wistar, Brain, Membrane.
Test [8] can be described thus: DRUGMATRIX: Phorbol Ester radioligand binding (ligand: [3H] PDBu). The test is classed as cell membranes, Mus musculus, ICR, Brain, Membrane. The following applies: Not Active = under 50% inhibition at 10 µM.
Test [9] deals with T2, Progesterone receptor (Bos taurus, UniProt Q690N0).
T2 sequence (Q690N0 whole entry): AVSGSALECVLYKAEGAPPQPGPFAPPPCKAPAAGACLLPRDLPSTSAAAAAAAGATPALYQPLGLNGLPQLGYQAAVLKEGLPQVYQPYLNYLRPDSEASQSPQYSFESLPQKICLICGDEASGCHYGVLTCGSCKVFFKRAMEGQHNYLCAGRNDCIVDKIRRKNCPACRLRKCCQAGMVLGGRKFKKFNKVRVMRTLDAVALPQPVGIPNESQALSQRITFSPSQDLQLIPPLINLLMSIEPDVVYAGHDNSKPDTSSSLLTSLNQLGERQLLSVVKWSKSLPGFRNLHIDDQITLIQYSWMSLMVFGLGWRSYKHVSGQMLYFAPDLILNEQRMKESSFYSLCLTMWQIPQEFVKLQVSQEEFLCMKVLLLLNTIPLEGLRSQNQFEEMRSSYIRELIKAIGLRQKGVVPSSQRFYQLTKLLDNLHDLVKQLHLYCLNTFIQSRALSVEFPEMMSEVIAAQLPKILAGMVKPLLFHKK
The test can be described thus: DRUGMATRIX: Progesterone radioligand binding (ligand: [3H] R-5020). Type of test: tissue-based, Uterus. The following applies: Not Active = under 50% inhibition at 10 µM; for Ki: read-out: Ki.

The target in test [10] is T3, Angiotensin-converting enzyme (Oryctolagus cuniculus, UniProt P12822).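 Note: enzymatic inhibition of angiotensin-converting enzyme measured with FAPGG as the substrate; in other assays of this panel Not Active means under 50% inhibition at 10 µM.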
T3 sequence (P12822 whole entry): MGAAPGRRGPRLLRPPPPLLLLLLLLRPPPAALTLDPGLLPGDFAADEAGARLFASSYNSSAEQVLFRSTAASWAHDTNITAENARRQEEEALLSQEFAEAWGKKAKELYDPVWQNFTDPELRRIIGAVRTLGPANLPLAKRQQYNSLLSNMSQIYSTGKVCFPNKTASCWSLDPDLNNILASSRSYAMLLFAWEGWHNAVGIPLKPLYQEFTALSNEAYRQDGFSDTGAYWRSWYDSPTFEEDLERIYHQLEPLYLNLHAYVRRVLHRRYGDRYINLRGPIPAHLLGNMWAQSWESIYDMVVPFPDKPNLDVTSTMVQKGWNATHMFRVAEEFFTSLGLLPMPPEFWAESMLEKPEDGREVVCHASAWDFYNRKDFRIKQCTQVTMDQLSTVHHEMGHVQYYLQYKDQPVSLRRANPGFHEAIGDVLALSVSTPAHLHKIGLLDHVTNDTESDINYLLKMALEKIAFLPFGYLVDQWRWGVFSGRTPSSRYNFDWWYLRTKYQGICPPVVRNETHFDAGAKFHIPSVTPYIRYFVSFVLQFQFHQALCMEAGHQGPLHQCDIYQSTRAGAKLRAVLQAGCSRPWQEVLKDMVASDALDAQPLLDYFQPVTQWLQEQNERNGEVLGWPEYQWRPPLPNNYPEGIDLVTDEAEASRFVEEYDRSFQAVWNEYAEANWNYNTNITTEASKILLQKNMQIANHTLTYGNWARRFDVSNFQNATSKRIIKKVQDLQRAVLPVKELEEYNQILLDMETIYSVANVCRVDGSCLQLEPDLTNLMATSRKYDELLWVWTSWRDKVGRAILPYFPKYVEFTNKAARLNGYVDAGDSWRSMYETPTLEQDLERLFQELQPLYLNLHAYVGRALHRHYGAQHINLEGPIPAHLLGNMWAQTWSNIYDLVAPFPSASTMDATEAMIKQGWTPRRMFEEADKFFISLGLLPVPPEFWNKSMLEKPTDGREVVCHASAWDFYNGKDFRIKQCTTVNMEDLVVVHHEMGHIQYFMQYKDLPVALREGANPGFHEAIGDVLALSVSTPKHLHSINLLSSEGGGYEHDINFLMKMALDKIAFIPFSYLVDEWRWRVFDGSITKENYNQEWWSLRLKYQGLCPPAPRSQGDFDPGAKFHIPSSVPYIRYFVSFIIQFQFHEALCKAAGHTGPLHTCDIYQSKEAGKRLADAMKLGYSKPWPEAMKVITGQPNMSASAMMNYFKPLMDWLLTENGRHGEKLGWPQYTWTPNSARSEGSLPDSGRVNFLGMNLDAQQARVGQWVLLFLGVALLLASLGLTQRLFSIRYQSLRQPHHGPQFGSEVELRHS
The experiment in a line: biochemical. Type of test: tissue-based, Lung.

C-C chemokine receptor type 2, sequence (P41597 whole entry): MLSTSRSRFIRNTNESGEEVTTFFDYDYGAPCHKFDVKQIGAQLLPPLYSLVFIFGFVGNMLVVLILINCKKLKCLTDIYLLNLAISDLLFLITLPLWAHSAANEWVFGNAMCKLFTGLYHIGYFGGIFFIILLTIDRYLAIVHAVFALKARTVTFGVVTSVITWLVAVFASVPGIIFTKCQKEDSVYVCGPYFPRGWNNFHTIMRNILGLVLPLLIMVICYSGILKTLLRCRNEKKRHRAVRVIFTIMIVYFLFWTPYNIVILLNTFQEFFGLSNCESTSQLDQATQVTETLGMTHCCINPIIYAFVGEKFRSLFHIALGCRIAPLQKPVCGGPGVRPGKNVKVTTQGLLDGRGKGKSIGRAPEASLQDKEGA

Consider `CC(=O)S[C@@H]1CC2=CC(=O)CC[C@]2(C)[C@H]2CC[C@@]3(C)[C@@H](CC[C@@]34CCC(=O)O4)[C@H]12` [SPIRONOLACTONE], for which the IC50 entry in test [1], in [2], in [3], in test [4], in test [5] and in [6] was “Not Active” each time. Moreover, the IC50 entry in test [7] was “Not Active”; in test [8], “Not Active”; in test [9] (read-out: IC50) it was 1670 nM; in test [10], “Not Active”. Besides, the Ki result in test [1], in test [2], in test [3], in test [6], in test [7] and in test [8] was “Not Active” each time. For the same molecule, in [9], the Ki worked out at 217 nM.

As for `C[C@]12Cc3c[nH]nc3C[C@@H]1CC[C@@H]1[C@@H]2CC[C@@]2(C)[C@H]1CC[C@]2(C)O` [STANOZOLOL], the IC50 entry in test [1], in test [2], in test [3], in test [4], in test [5] and in [6] was “Not Active” in each case. In addition, the IC50 result was “Not Active” in [7], “Not Active” in test [8], 3710 nM in [9] (read-out: IC50) and “Not Active” in test [10]. Further, the Ki entry in [1], in test [2], in test [3], in test [6], in test [7] and in [8] was “Not Active” throughout. The Ki in [9] is 483 nM.

In the case of `CN(N=O)C(=O)N[C@@H](C=O)[C@@H](O)[C@H](O)[C@H](O)CO` [STREPTOZOCIN], the IC50 result in [1], in test [2], in test [3], in test [4], in test [5] and in test [6] was “Not Active” each time. Also, the IC50 result in [7], in [8], in test [9] and in test [10] was “Not Active” throughout. The Ki result in test [1], in [2], in [3], in [6], in test [7] and in [8] was “Not Active” in each case.

Regarding `Cc1cc(NS(=O)(=O)c2ccc(N)cc2)no1` [SULFAMETHOXAZOLE], the IC50 result in test [1], in test [2], in test [3], in test [4], in [5] and in test [6] was “Not Active” throughout. In addition, the half-maximal inhibitory concentration (IC50) entry in test [7], in test [8], in test [9] and in test [10] was “Not Active” in each case. Also, the Ki entry in [1], in test [2], in test [3], in test [6], in test [7] and in test [8] was “Not Active” in each case.

Values taken from ChEMBL document CHEMBL1909046, “DrugMatrix in vitro pharmacology data”.
